Assay: Viscosity of cyanoacrylate monomer, oligomer and formulation
Type: physicochemical
Details: monomer free of 4-methoxyphenol and SO2
Source text: In one embodiment, an alkyl cyanoacrylate monomer can be treated to form an alkyl cyanoacrylate oligomer with viscosity greater than the alkyl cyanoacrylate monomer. For example, an n-hexyl cyanoacrylate monomer can be treated to form an n-hexyl cyanoacrylate oligomer. Preferred oligomers result from photochemical treatment of an alkyl cyanoacrylate monomer, to produce a mixture that includes partially polymerized cyanoacrylate and that has a higher viscosity than the alkyl cyanoacrylate monomer from which it is formed. For example, the viscosity of the alkyl cyanoacrylate oligomer can advantageously be from about 10 centipoise to about 1000 centipoise and the viscosity of the alkyl cyanoacrylate monomer, from which the alkyl cyanoacrylate oligomer is formed, can be from about 2 centipoise to about 5 centipoise as measured by a rheometer. Typically, the oligomer will have a viscosity of from about 10 centipoise to about 50 centipoise.
The purified n-hexyl cyanoacrylate monomer from Example 1, containing 4-methoxyphenol, was treated with Aldrich HQ & MEHQ inhibitor remover, Sigma-Aldrich, Inc., St. Louis, Mo., USA (2005-2006 Catalog #306320), to remove the p-methoxyphenol, followed by bubbling argon through the n-hexyl cyanoacrylate monomer to remove SO2. The viscosity of the purified n-hexyl cyanoacrylate, free of 4-methoxyphenol and SO2, was ˜4 centipoise. […]

**Q.** With n-hexyl cyanoacrylate as the substance, how does the viscosity read?
**A.** Its viscosity is ~4 centipoise.
